Reference: patent publication US6995150B2, “Pharmaceutical compositions and uses for androst-5-ene-3β, 17β-diol” (Endorecherche, Inc., priority 1998, dated 2006)
“Also recorded” adds a separate entry of the source.

Experiments:
[1] = system: mRNAs encoding the C1 and C3 components of prostatic binding protein; assay: PBP-C1 and PBP-C3 mRNA in the ventral prostate of orchiectomized rats, percutaneous administration; assay type: in vivo, rat; details: ORCH rats, depending on dosage
Protocol: (§1) Intact animals are used as additional controls.
as §1
(§2) Male and female Sprague-Dawley rats [Crl: CD (SD)Br] weighing 225-250 g and 175-200 g, respectively, were obtained from Charles River Canada Inc. (St-Constant, Québec) and housed 2 per cage under a regimen of 14 h of light/da, (lights on at 07:15 h). Animals received Purina rat chow and water ad libitum. The animal studies were conducted to the “Guideline for Care and use of Experimental Animals”.
The animals were randomly divided into the indicated groups (8 and 10 rats per group for subcutaneous and topical administration, respectively). […]
Radioimmunoassay data were analyzed using a program based on model II of Rodbard and Lewald (Rodbard, 1974). […] In situ hybridization data were obtained as follows: for each prostatic tissue section, 20 randomly selected areas measuring 0.25 mm^2 (excluding acinar lumen) were analyzed using an Image Research Analysis System (Amersham, Arlington Heights, Ill.) and the mean optical density value for each section was calculated. Data are shown as the means±SEM of 20 readings from 6-8 prostatic sections originating from ventral 3 prostates. Statistical significance was measured according to the multiple range test of Duncan-Kramer (Kramer, 1956).

orchiectomized rats [2] = assay: Ventral prostate and seminal vesicle weight in orchiectomized rats, percutaneous administration; assay type: in vivo, rat
Protocol: as §1, §1, §2
(§3) The animals were randomly divided into the indicated groups (8 and 10 rats per group for subcutaneous and topical administration, respectively). The animals of the appropriate groups were bilaterally ovariectomized (OVX) or orchiectomized (ORCH) under ether anesthesia while other rats were used as intact controls.
(§4) Seven days after starting treatment or approximately 12 h after last administration of the steroid, the animals were killed by decapitation. Blood samples were collected individually and serum was frozen at −20° C. until assayed. Uteri, ovaries, ventral prostates, dorsal prostates and seminal vesicles were immediately removed, freed from connective and adipose tissue, weighed, frozen in liquid nitrogen, and stored at −80° C. until assayed. Three rats from the indicated treatment groups were perfused with paraformaldehyde for in situ hybridization.

ovariectomized rats [3] = assay: Serum LH concentration in ovariectomized rats, percutaneous administration; assay type: in vivo, rat; details: OVX rats
Protocol: (§5) Intact animals are used as additional controls. The compounds were dissolved in 50% ethanol-50% propylene glycol and were administered in 0.1 ml on the dorsal skin area (2 cm×2 cm).
as §2, §3, §4
Serum LH was measured by double-antibody radioimmunoassay using rat hormones (LH-I-6 for iodination; LH-RP-2 as standard), and the rabbit antisera anti-r-LH-S-8, generously supplied by the National Pituitary Program, Baltimore, USA.
Radioimmunoassay data were analyzed using a program based on model II of Rodbard and Lewald (Rodbard, 1974). Plasma steroid levels are shown as the means±SEM of duplicate determinations of individual samples. In situ hybridization data were obtained as follows: for each prostatic tissue section, 20 randomly selected areas measuring 0.25 mm^2 (excluding acinar lumen) were analyzed using an Image Research Analysis System (Amersham, Arlington Heights, Ill.) and the mean optical density value for each section was calculated. Data are shown as the means±SEM of 20 readings from 6-8 prostatic sections originating from ventral 3 prostates. Statistical significance was measured according to the multiple range test of Duncan-Kramer (Kramer, 1956).

ovariectomized rats [4] = assay: Uterine weight in ovariectomized rats, percutaneous administration twice daily for 7 days; assay type: in vivo, rat; details: for effect on uterine weight: percutaneous; for maximal reversal of the inhibitory effect of ovariectomy on uterine weight: 100 mg percutaneous twice daily, 7 days
Protocol: as §5, §2, §3, §4

[5] = Serum steroid concentrations (DHEA, 5-DIOL, 4-dione, testosterone, DHT) in ovariectomized rats, percutaneous administration; details: for concentration at 12 h: female, Sprague-Dawley, rat, in vivo; for serum levels of 5-DIOL, 5-DIOL versus DHEA: higher doses
Protocol: as §5, §5, §5
Intact animals are used as additional controls. The compounds were dissolved in 50% ethanol-50% propylene glycol and were administered in 0.1 ml on the dorsal skin in area (2 cm×2 cm).
as §5, §2, §3, §4
Steroid extraction, Ethanol (5 ml) was added to 1 ml serum and centrifugation at 2000×g was preformed for 15 min. The resulting pellet was further extracted with 2 ml ethanol and, after a second centrifugation at 2000×g for 15 min, the two supernatants were combined. The suspension was recentrifuged as described above and the supernatant was decanted and combined with the previously obtained ethanol extracts. The organic solvent was then evaporated under nitrogen and the residue was dissolved in 1 ml water: methanol (95:5, v/v). The C-18 columns (Bound-Elut, Amersham, Bucks, U.K.) were conditioned by passing consecutively 10 ml methanol, 10 ml water and 10 ml methanol/water (5:95, v/v). The extracts solubilized in water:methanol (95:5, v/v) were then deposited on the C-18 columns. After washing the columns with 2 ml water:methanol (95:5, v/v) and 5 ml methanol:water (50:50, v/v), 5 ml methanol:water (85:15, v/v) were added to eluate the non-conjugated steroids.
Chromatography on Sephadex LH-20 columns (Pharmacia, Uppsala, Sweden) was performed as previously described (Bélanger et al., 1988). In brief, steroids were solubilized in 1 ml isooctane/toluene/methanol (90:5:5, v:v:v) and deposited on the LH-20 columns. Fractions were collected and, after evaporation of the organic solvent, the concentration of the various steroids was determined by radioimmunoassay as previously described (Bélanger et al., 1980; Bélanger et al., 1988; Bélanger et al., 1990)
Radioimmunoassay data were analyzed using a program based on model II of Rodbard and Lewald (Rodbard, 1974). Plasma steroid levels are shown as the means±SEM of duplicate determinations of individual samples.

ovariectomized rats [6] = assay: Uterine weight in ovariectomized rats, subcutaneous administration twice daily for 7 days; assay type: in vivo, rat; details: for dose giving half-maximal stimulation of uterine weight: OVX rats
Protocol: as §1, §2, §3, §4

orchiectomized rats [7] = assay: Prostate and seminal vesicle weight in orchiectomized rats, subcutaneous administration; assay type: in vivo, rat; details: ORCH rats; for ED50 of maximal effect on prostate weight: half of each compound's own maximal effect
Protocol: as §1, §1, §2, §3, §4

MCF-7 cells = details: cited from earlier work
[8] = system: human mammary tumor ZR-75-1 cells; details: concentrations within range of plasma levels in adult women; cited from earlier work

Structure (SMILES) | inhibition of serum LH below the value in intact control animals (ovariectomized rats [3]; 30 mg dose) | inhibition of serum LH below the value in intact control animals (ovariectomized rats [3]; 100 mg dose) | effect on uterine weight (ovariectomized rats [4]; 10 mg and 30 mg doses) | maximal reversal of the inhibitory effect of ovariectomy on uterine weight (ovariectomized rats [4]) | effect on uterine weight (ovariectomized rats [4]; 1 and 3 mg doses) | serum levels of 5-DIOL, 5-DIOL versus DHEA ([5]; percutaneous, OVX rats) | dose giving half-maximal stimulation of uterine weight (ovariectomized rats [6]) | ED50, dose giving half-maximal reversal of the effect of orchiectomy on prostate weight (orchiectomized rats [7]) | half-maximal reversal of the effect of orchiectomy on seminal vesicle weight (dose) (orchiectomized rats [7]) | ED50 of maximal effect on prostate weight (orchiectomized rats [7]) | also measured
C[C@]12CC[C@H](O)CC1=CC[C@@H]1[C@@H]2CC[C@]2(C)C(=O)CC[C@@H]12 [DHEA, dehydroepiandrosterone] | approximately 35% | ~70% | comparable stimulation | 42% | no significant effect | no significant difference | ~2.5 mg | 1 mg | ~2.5 mg | 2.5 mg | stimulation of PBP-C1 and PBP-C3 mRNA levels by DHEA relative to 5-DIOL [1]: two to five times the effect; also recorded: two to five times more potent; reversal of the inhibitory effect of orchiectomy on ventral prostate weight (orchiectomized rats [2]; 10 mg dose, percutaneous): about 75%; androgenic activity of DHEA relative to 5-DIOL where equivalent estrogenic effects are provided (orchiectomized rats [2]; percutaneous administration): two to three times more androgenic activity; potency of DHEA relative to 5-DIOL in increasing seminal vesicle weight (orchiectomized rats [2]; percutaneous, ORCH rats): 1 fold; inhibitory effect on serum LH (ovariectomized rats [3]; 10 mg dose): 61%; concentration at 12 h ([5]; 3 mg): 1.74 ± 0.3 nM; concentration at 12 h ([5]; 30 mg): 12.9 ± 3.69 nM; concentration at 12 h ([5]; 100 mg): 39.2 ± 6.5 nM; effect on uterine weight (ovariectomized rats [6]; 0.3 mg): no significant effect
C[C@]12CC[C@H]3[C@@H](CC=C4C[C@@H](O)CC[C@@]43C)[C@@H]1CC[C@@H]2O [5-DIOL, androst-5-ene-3β,17β-diol] | approximately 35% | ~70% | comparable stimulation | 52% | no significant effect | no significant difference | 0.5 mg | 1 mg | ~1.2 mg | 1.2 mg | reversal of the effect of castration on ventral prostate weight (orchiectomized rats [2]; 15 mg dose, percutaneous): 50%; serum LH (ovariectomized rats [3]; 10 mg dose): 0.86 ± 0.17 ng/mL; estrogen-dependent synthesis of the 52 kDa glycoprotein (MCF-7 cells): increases; serum DHEA level ([5]; 3, 10, 30 and 100 mg dosages, percutaneous, OVX rats): relatively constant but low level; levels of serum DHT ([5]; across the dosage range, percutaneous, OVX rats): substantially constant and relatively low; serum levels of 5-DIOL compared with the other steroid ([5]; lower doses, 1 and 3 mg, percutaneous, OVX rats): higher levels; reversal of the effect of 1-week ovariectomy on uterine weight (ovariectomized rats [6]; 0.3 mg): 90%; cell proliferation [8]: enhances cell proliferation; progesterone receptor levels [8]: enhances
